Laboratory results as given in ChEMBL document CHEMBL2406996, “Bioactive ent-kaurane diterpenoids from Isodon rosthornii” (J Nat Prod, 2013).
Residues, ends and D or L forms follow the SMILES beside them. *: point of attachment. Cbz = O=C(OCc1ccccc1)*

What was measured:
A549 = experiment: Cytotoxicity against human A549 cells after 48 hrs by MTT assay; assay type: functional, cell-based; details: A549, 48 h
RAW264.7 [1] = experiment: Cytotoxicity against mouse RAW264.7 cells after 18 hrs by MTS assay; assay type: cell-based; details: raw264.7, 18 h
RAW264.7 [2] = experiment: Antiinflammatory activity in mouse RAW264.7 cells assessed as inhibition of LPS-induced nitric oxide production after 18 hrs by Griess method; assay type: functional, cell-based; details: RAW264.7, 18 h
HL-60 = experiment: Cytotoxicity against human HL60 cells after 48 hrs by MTT assay; assay type: functional, cell-based; details: HL-60, 48 h
SMMC-7721 = experiment: Cytotoxicity against human SMMC7721 cells after 48 hrs by MTT assay; assay type: functional, cell-based; details: SMMC-7721, 48 h
SW480 = experiment: Cytotoxicity against human SW480 cells after 48 hrs by MTT assay; assay type: functional, cell-based; details: SW480, 48 h
MCF7 = experiment: Cytotoxicity against human MCF7 cells after 48 hrs by MTT assay; assay type: functional, cell-based; details: MCF7, 48 h

Row | SMILES | IC50 (A549) | Activity (RAW264.7 [1]) | IC50 (RAW264.7 [2]) | IC50 (HL-60) | IC50 (SMMC-7721) | IC50 (SW480) | IC50 (MCF7)
1 | C[C@@H]1[C@@H]2C[C@H](O)[C@H]3[C@]45CCCC(C)(C)[C@H]4[C@H](O)[C@](O)(OC5)[C@@]3([C@@H]1O)[C@@H]2O | > 10 µM | Non-toxic | > 25 µM | > 10 µM | > 10 µM | > 10 µM | > 10 µM
2 | C[C@@H]1[C@@H]2CC[C@H]3[C@]45CCCC(C)(C)[C@H]4[C@H](O)[C@](O)(OC5=O)[C@@]3([C@@H]1O)[C@@H]2O | > 10 µM | Non-toxic | > 25 µM | > 10 µM | > 10 µM | > 10 µM | > 10 µM
3 | C=C1[C@@H](O)[C@@]23C(=CC[C@@H]1[C@H]2O)[C@@]12CO[C@@]3(O)[C@@H](O)[C@@H]1C(C)(C)CC[C@@H]2O | > 10 µM | Non-toxic | > 25 µM | > 10 µM | > 10 µM | > 10 µM | > 10 µM
4 | C=C1C(=O)[C@]23C[C@H]1CC=C2[C@@]12CO[C@@]3(O)[C@@H](O)[C@@H]1C(C)(C)CC[C@@H]2O | 4.6 µM | Non-toxic | 2 µM | 8.8 µM | 3.5 µM | 3.4 µM | 3.3 µM
5 | C=C1[C@H]2C[C@@H]3OC(=O)[C@@H]4C(C)(C)CC[C@@H]5OC(=O)[C@](C2)([C@@H]1O)[C@@H]3[C@]54C=O | > 10 µM | Non-toxic | 2 µM | 6.1 µM | > 10 µM | > 10 µM | > 10 µM
6 | C=C1C(=O)[C@]23[C@H](O)[C@H]1C[C@@H](O)[C@H]2[C@]12CCCC(C)(C)[C@H]1[C@H](O)[C@@]3(O)OC2 | 8.6 µM | Non-toxic | 1.7 µM | 3.5 µM | 4.5 µM | 2.5 µM | 5.1 µM
7 | C=C1C(=O)[C@]23C[C@H]1CC[C@H]2[C@@]12CO[C@]3(O)[C@@H](O)[C@@H]1C(C)(C)CC[C@@H]2O | 5.6 µM | Non-toxic | 3.4 µM | 7.9 µM | 5.9 µM | 3.2 µM | 4.2 µM
8 | C=C1[C@@H](O)[C@]23[C@H](O)[C@H]1CC[C@H]2[C@@]12C(=O)O[C@]3(O)[C@@H](O)[C@@H]1C(C)(C)CC[C@@H]2O |  | Non-toxic | 6.1 µM |  |  |  | 
9 | C=C1C(=O)[C@]23[C@H](O)[C@H]1CC[C@H]2[C@@]12[C@@H](OC)O[C@]3(O)[C@@H](O)[C@@H]1C(C)(C)CC[C@@H]2O | > 10 µM | Non-toxic | > 25 µM | 7 µM | > 10 µM | 9.4 µM | > 10 µM
10 | C=C1[C@@H](O)[C@]23[C@H](O)[C@H]1CC[C@H]2[C@@]12C(OC)O[C@]3(O)[C@@H](O)[C@@H]1C(C)(C)CC[C@@H]2O (stereo partly specified) | > 10 µM | Non-toxic | > 25 µM | 5.3 µM | > 10 µM | > 10 µM | > 10 µM
11 | C=C1C(=O)[C@@]23[C@@H]4OC(C)(C)O[C@@]25OC[C@]2(CCCC(C)(C)[C@H]2[C@@H]5O)[C@@H]3[C@@H](O)C[C@@H]14 | 3.4 µM | Non-toxic | 1.1 µM | 1.5 µM | 2.6 µM | 2 µM | 1.8 µM
12 | C=C1[C@H]2CC3=C4[C@](C2)(C(=O)O[C@H]2CCC(C)(C)[C@@H]([C@@H](O)O3)[C@]42C=O)[C@@H]1OC(C)=O | > 10 µM | Non-toxic | > 25 µM | > 10 µM | > 10 µM | > 10 µM | > 10 µM
13 | C=C1[C@H]2CC[C@@H]3[C@](C2)(C(=O)O[C@@H]2CCC(C)(C)[C@H]4[C@H](O)O[C@@H](OC)[C@@]432)[C@@H]1OC(C)=O | > 10 µM | Non-toxic | > 25 µM | > 10 µM | > 10 µM | > 10 µM | > 10 µM
14 | C=C1C(=O)[C@]23[C@H](OC(C)=O)[C@H]1C[C@H](OC(C)=O)[C@H]2[C@]12CCCC(C)(C)[C@H]1[C@H](O)[C@]3(O)OC2 | > 10 µM | Non-toxic | 6.3 µM | 4.6 µM | > 10 µM | 3.2 µM | > 10 µM
15 | C=C1C(=O)[C@]23[C@H](O)[C@H]1CC[C@H]2[C@@]12[C@@H](OCCCC)O[C@@]3(O)[C@@H](O)[C@@H]1C(C)(C)CC[C@@H]2O (mixture of isomers) | 3.9 µM | Non-toxic | 1.5 µM | 1.2 µM | 3.2 µM | 2.8 µM | 2.6 µM
16 | C=C1C(=O)[C@]23[C@H](O)[C@H]1CC[C@H]2[C@@]12[C@H](OCC)O[C@@]3(O)[C@@H](O)[C@@H]1C(C)(C)CC[C@@H]2O (relative stereo) | > 10 µM | Non-toxic | 3.9 µM | 5.9 µM | > 10 µM | 7.8 µM | 8.4 µM
17 | C=C1[C@H]2C[C@H](O)[C@@H]3[C@](C2)(C(=O)O[C@@H]2CCC(C)(C)[C@H]4[C@H](O)O[C@H](OC)[C@@]432)[C@@H]1OC(C)=O (relative stereo) | > 10 µM | Non-toxic | 1.5 µM | 4.3 µM | > 10 µM | 3.3 µM | 3.5 µM
18 | C=C1C(=O)[C@]23[C@H](O)[C@H]1CC[C@H]2[C@@]12CO[C@@]3(O)[C@@H](O)[C@@H]1C(C)(C)CC[C@@H]2OC(C)=O [LASIOKAURIN] | 6.7 µM | Non-toxic | 1.9 µM | 1.8 µM | 2.7 µM | 2.4 µM | 2.5 µM
19 | CC(C)C[C@@H](C=O)NC(=O)[C@H](CC(C)C)NC(=O)[C@H](CC(C)C)NC(=O)OCc1ccccc1 [MG-132] (Cbz-Leu-Leu-Leu-aldehyde) |  | Non-toxic | 0.1 µM |  |  |  | 
20 | C=C1C(=O)[C@]23[C@H](O)[C@H]1CC[C@H]2[C@@]12CO[C@]3(O)[C@@H](O)[C@@H]1C(C)(C)CC[C@@H]2O [ORIDONIN] | > 10 µM | Non-toxic | 5.2 µM | 2.5 µM | > 10 µM | > 10 µM | > 10 µM
21 | CC(=O)O[C@H]1C(=O)[C@@]2(C)[C@H]([C@H](OC(=O)c3ccccc3)[C@]3(O)C[C@H](OC(=O)[C@H](O)[C@@H](NC(=O)c4ccccc4)c4ccccc4)C(C)=C1C3(C)C)[C@]1(OC(C)=O)CO[C@@H]1C[C@@H]2O [PACLITAXEL] |  |  |  | < 0.008 µM | < 0.008 µM | 0.04 µM | < 0.008 µM
22 | C=C1C(=O)[C@]23[C@H](O)[C@H]1CC[C@H]2[C@@]12C(OC)O[C@@]3(O)[C@@H](O)[C@@H]1C(C)(C)CC[C@H]2O (stereo partly specified) [RABDOTERNIN E] | > 10 µM | Non-toxic | 2.3 µM | 2.6 µM | > 10 µM | 4.1 µM | > 10 µM
